Test results published in patent US11596649B2, “Composition in powder form comprising iron and probiotic bacteria” (NESTEC S.A., priority 2016, dated 2023).
Like-named read-outs stand apart in the source and are kept apart here.

Key:
probiotic bacteria = test: Viability of probiotic bacteria with added iron source (general finding); type: cell-based; details: iron source in powder composition with probiotic bacteria, at reconstitution
[1] = in human; Hurrell, Iron Fortification of Foods, 1985; cited from earlier work
[2] = tested on: Bifidobacterium longum (deposited as ATCC BAA-999); details: FIG. 5; for loss of live Bifidobacterium longum in the reconstituted compositions: 25 and 50 mg Fe2+ per 100 g infant formula powder (Nestogen 1)
Protocol: The Samples were produced as follows. The infant formula powder, the dried probiotic powder and the iron source were added together in a 500 mL plastic beaker and mixed for 5 minutes at 34 rpm using a Turbula® T2F dry mixer (WAB, Switzerland). An amount of 25 g of freshly mixed sample was diluted 1/10 in an aqueous tryptone salt solution supplemented with anti-foaming agent at 37° C. After 5 minutes of homogenization using a Masticator® (IUL, Spain), decimal dilutions were performed. The appropriate dilution resulting in 30-300 colonies after incubation was then transferred to a petri dish and mixed with RCA agar according to the pour plate method. Once solidified the plates were incubated at 37° C. under anaerobic conditions. After 48 h of incubation the colonies present on the plates were counted.

[3] = tested on: Bifidobacterium longum (deposited as ATCC BAA-999); details: 5, 25 and 50 mg Fe2+ per 100 g maltodextrin model composition, FIG. 2
Protocol: The Samples were produced as follows. The maltodextrin, the dried probiotic powder and the iron source were added together in a 500 mL plastic beaker and mixed for 5 minutes at 34 rpm using a Turbula® T2F dry mixer (WAB, Switzerland). An amount of 25 g of freshly mixed sample was diluted 1/10 in an aqueous tryptone salt solution supplemented with anti-foaming agent at 37° C. After 5 minutes of homogenization using a Masticator® (IUL, Spain), decimal dilutions were performed. The appropriate dilution resulting in 30-300 colonies after incubation was then transferred to a petri dish and mixed with RCA agar according to the pour plate method. Once solidified the plates were incubated at 37° C. under anaerobic conditions. After 48 h of incubation the colonies present on the plates were counted.

[4] = tested on: Lactobacillus rhamnosus (deposited as CGMCC 1.3724); details: FIG. 4; for loss of live L. rhamnosus in the reconstituted compositions: 10 and 30 mg Fe2+ per 100 g infant formula powder (Nestogen 1)
Protocol: An amount of 25 g of freshly mixed sample was diluted 1/10 in an aqueous tryptone salt solution supplemented with anti-foaming agent at 37° C. After 5 minutes of homogenization using a Masticator® (IUL, Spain), decimal dilutions were performed. The appropriate dilution resulting in 30-300 colonies after incubation was then transferred to a petri dish and mixed with MRS agar according to the pour plate method. Once solidified the plates were incubated at 37° C. under aerobic conditions. After 48 h of incubation the colonies present on the plates were counted.

[5] = tested on: Lactobacillus rhamnosus (deposited as CGMCC 1.3724); details: 10 and 30 mg Fe2+ per 100 g maltodextrin model composition, FIG. 1
Protocol: (§1) The maltodextrin, the dried probiotic powder and the iron source were added together in a 500 mL plastic beaker and mixed for 5 minutes at 34 rpm using a Turbula® T2F dry mixer (WAB, Switzerland). An amount of 25 g of freshly mixed sample was diluted 1/10 in an aqueous tryptone salt solution supplemented with anti-foaming agent at 37° C. After 5 minutes of homogenization using a Masticator® (IUL, Spain), decimal dilutions were performed. The appropriate dilution resulting in 30-300 colonies after incubation was then transferred to a petri dish and mixed with MRS agar according to the pour plate method. Once solidified the plates were incubated at 37° C. under aerobic conditions. After 48 h of incubation the colonies present on the plates were counted.

[6] = tested on: Lactobacillus paracasei (deposited as CNCM I-2116); test: Survival of Lactobacillus paracasei on reconstitution, maltodextrin model composition (Example 3, plate count); type: cell-based; details: 5, 25 and 50 mg Fe2+ per 100 g maltodextrin model composition, FIG. 3
Protocol: as §1

[7] = in rat; Hurrell, Iron Fortification of Foods, 1985; cited from earlier work

Compound	loss of viability of probiotic bacteria (probiotic bacteria)	average bioavailability [1]	loss of live Bifidobacterium longum in the reconstituted compositions [2]	loss of live Bifidobacterium longum in the reconstituted compositions [3]	loss of live L. rhamnosus in the reconstituted compositions [4]	loss of live L. rhamnosus in the reconstituted compositions [5]	loss of viable Bifidobacterium longum compared with dissolved ferrous sulphate in spray-dried form ([2]; 25 and 50 mg Fe2+ per 100 g infant formula composition, all iron concentrations)	loss of viable Bifidobacterium longum compared with dissolved ferrous sulphate in spray-dried form ([3]; all iron concentrations)	loss of viable Lactobacillus rhamnosus compared with dissolved ferrous sulphate in spray-dried form ([4]; 10 and 30 mg Fe2+ per 100 g infant formula composition, both iron concentrations)	loss of viable Lactobacillus rhamnosus compared with dissolved ferrous sulphate in spray-dried form ([5]; both iron concentrations)	loss of live Lactobacillus paracasei in the reconstituted compositions [6]	loss of viable Lactobacillus paracasei compared with dissolved ferrous sulphate in spray-dried form ([6]; all iron concentrations)	bioavailability [7]
O=C([O-])CC(O)(CC(=O)O)C(=O)[O-].[Fe+2] [ferrous citrate]	do not significantly impair	74%											
O.O.O.O.O.O.O.O=S(=O)([O-])[O-].[Fe+2] [ferrous sulphate heptahydrate, reference compound]	significant loss		significant loss	significant loss	significant loss	significant loss							
O.O=S(=O)([O-])[O-].[Fe+2] [ferrous sulphate monohydrate]	no significant loss		no significant loss	no significant loss	no significant loss	no significant loss	significantly lower	significantly lower	significantly lower	significantly lower	no significant loss	significantly lower	
ferric citrate	do not significantly impair	31%											75%
